Measured values from the supplement of paper PMC10307832.

Key:
Experiment in all cases: relative viability (nuclei count vs DMSO), 5 days (fraction); higher = more cells survive
[1] = compound: COC1=CC=C(C=C1)CN2C=CC3=C2C=C(C=C3)C(=O)NO + Cc1nc(NC(=O)N2CCC[C@H]2C(N)=O)sc1-c1ccnc(C(C)(C)C(F)(F)F)c1 [Alpelisib] (partner 2 µM)
Procedure, shortened: (§1)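 Relative viability is defined as nuclei in treated wells over nuclei in vehicle wells. Duplicate plates were run and medians reported. Lung cancer cell lines in 1536-well plates were dosed by pin tool one day after seeding, with one drug or with a fixed anchor-drug dose plus five library-drug doses (not always all listed) in √10 steps, and nuclei were counted after 5 days.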

[2] = compound: COC1=CC=C(C=C1)CN2C=CC3=C2C=C(C=C3)C(=O)NO + Cc1nc(Nc2ncc(C(=O)Nc3c(C)cccc3Cl)s2)cc(N2CCN(CCO)CC2)n1 [Dasatinib] (partner 0.075 µM)
Procedure, shortened: as §1

[3] = compound: C[C@]1(c2nc3c(C(N)=O)cccc3[nH]2)CCCN1 [Veliparib] + C[C@@H](Oc1cc(-c2cnn(C3CCNCC3)c2)cnc1N)c1c(Cl)ccc(F)c1Cl [Crizotinib] (partner 1 µM)
Procedure, shortened: as §1

[4] = compound: C[C@]1(c2nc3c(C(N)=O)cccc3[nH]2)CCCN1 [Veliparib] + COc1cc2c(Oc3ccc(NC(=O)C4(C(=O)Nc5ccc(F)cc5)CC4)cc3F)ccnc2cc1OCCCN1CCOCC1 [Foretinib] (partner 0.25 µM)
Procedure, shortened: as §1

Cell Line | relative viability ([1]; first compound 0.08 µM) | relative viability ([1]; first compound 0.253 µM) | relative viability ([1]; first compound 0.8 µM) | relative viability ([1]; first compound 2.53 µM) | relative viability ([1]; first compound 8 µM) | relative viability ([2]; first compound 0.08 µM) | relative viability ([2]; first compound 0.253 µM) | relative viability ([2]; first compound 0.8 µM) | relative viability ([2]; first compound 2.53 µM) | relative viability ([2]; first compound 8 µM) | relative viability ([3]; first compound 0.02 µM) | relative viability ([3]; first compound 0.06325 µM) | relative viability ([3]; first compound 0.2 µM) | relative viability ([3]; first compound 0.6325 µM) | relative viability ([3]; first compound 2 µM) | relative viability ([4]; first compound 0.02 µM) | relative viability ([4]; first compound 0.06325 µM) | relative viability ([4]; first compound 0.2 µM) | relative viability ([4]; first compound 0.6325 µM) | relative viability ([4]; first compound 2 µM)
NCI-H1666 | 1.07 | 1.04 | 1.01 | 1.04 | 1.36 | 0.831 | 0.783 | 0.887 | 0.873 | 0.822 | 0.94 | 0.826 | 1.03 | 0.995 | 1.07 | 1.01 | 0.96 | 0.997 | 0.895 | 0.964
NCI-H1734 | – | 0.676 | 0.717 | 0.622 | 0.689 | – | 0.492 | 0.547 | 0.536 | 0.382 | 0.701 | 0.641 | 0.728 | 0.623 | 0.682 | 0.797 | 0.85 | 0.886 | 0.832 | 0.836
NCI-H1755 | 0.819 | 0.964 | 0.913 | 0.995 | 0.928 | 0.37 | 0.466 | 0.414 | 0.444 | 0.397 | 0.84 | 0.853 | 0.794 | 0.832 | 0.805 | 0.947 | 0.915 | 0.935 | 0.893 | 0.91
NCI-H1915 | 1.02 | 1.07 | 1.06 | 1.08 | 1.02 | 0.326 | 0.333 | 0.314 | 0.303 | 0.27 | 0.866 | 0.869 | 0.803 | 0.754 | 0.771 | 1.09 | 0.975 | 1.03 | 0.92 | 0.969
NCI-H1944 | – | 0.897 | 0.731 | 0.774 | 0.795 | – | 0.215 | 0.235 | 0.237 | 0.204 | 0.995 | 1.04 | 0.951 | 0.965 | 0.976 | 0.806 | 0.906 | 0.731 | 0.817 | 0.813
NCI-H1975 | 0.699 | 0.711 | 0.644 | 0.592 | 0.547 | 0.342 | 0.413 | 0.447 | 0.359 | 0.325 | 0.964 | 1.12 | 0.977 | 0.93 | 0.89 | 1.12 | 0.96 | 0.903 | 0.881 | 0.979
NCI-H1993 | 0.613 | 0.671 | 0.669 | 0.745 | 0.795 | 0.569 | 0.633 | 0.647 | 0.665 | 0.572 | 0.836 | 0.822 | 0.815 | 0.787 | 0.771 | 0.674 | 0.7 | 0.789 | 0.828 | 0.79
NCI-H2009 | 1.15 | 1.17 | 1.05 | 1.24 | 1.09 | 0.281 | 0.284 | 0.326 | 0.276 | 0.197 | 1.1 | 0.934 | 1.05 | 1.03 | 1.03 | 1.35 | 1.21 | 1.17 | 1.2 | 1.28
NCI-H2023 | 0.58 | 0.646 | 0.507 | 0.586 | 0.639 | 0.553 | 0.596 | 0.592 | 0.577 | 0.439 | 0.567 | 0.616 | 0.635 | 0.567 | 0.601 | 0.78 | 0.691 | 0.852 | 0.885 | 0.788
NCI-H2085 | 0.968 | 0.981 | 1.1 | 0.969 | 1.02 | 0.235 | 0.293 | 0.221 | 0.225 | 0.214 | 0.9 | 0.805 | 0.702 | 0.738 | 0.809 | – | 0.787 | 0.909 | 0.647 | 1.15
NCI-H2087 | 1.08 | 1.08 | 1.21 | 1.13 | 0.864 | 0.93 | 0.941 | 0.989 | 0.983 | 0.653 | 0.729 | 0.722 | 0.831 | 0.806 | 0.61 | 1.04 | 1.04 | 0.999 | 1.16 | 1.08
NCI-H2126 | 0.738 | 0.798 | 0.744 | 0.804 | 0.836 | 0.591 | 0.673 | 0.655 | 0.61 | 0.547 | 0.966 | 1.02 | 0.988 | 0.988 | 0.933 | 1.19 | 1.2 | 1.26 | 1.31 | 1.1
NCI-H2170 | 0.714 | 0.941 | 0.837 | 0.793 | 0.838 | 0.456 | 0.687 | 0.711 | 0.69 | 0.541 | 1.23 | 1.24 | 1.21 | 1.14 | 1.14 | 0.977 | 1 | 0.963 | 0.942 | 1.03
NCI-H2228 | 0.764 | 0.659 | 0.773 | 0.893 | 0.741 | – | 0.458 | 0.662 | 0.497 | 0.413 | 0.436 | 0.405 | 0.457 | 0.447 | 0.475 | 0.794 | 0.731 | 0.845 | 0.737 | 0.957
NCI-H2347 | 0.763 | 1.14 | 1.03 | 1.18 | 1.01 | 0.248 | 0.246 | 0.337 | 0.329 | 0.325 | 0.798 | 0.839 | 0.678 | 0.652 | 0.616 | 0.977 | 0.545 | 0.763 | 0.802 | 0.844
NCI-H2405 | 0.474 | 0.784 | 0.804 | 0.797 | 0.675 | 0.209 | 0.214 | 0.221 | 0.196 | 0.177 | 0.845 | 0.788 | 0.802 | 0.815 | 0.909 | 1.09 | 0.937 | 1.08 | 1.03 | 1.07
